The compounds below were run against recombinant human integrin αvβ6 (Homo sapiens (Human), UniProt P06756+P18564) (assay: Solid phase integrin αvβ6 binding assay). Conditions: IC50 presented in four ranges; read-out: αvβ6 Inhibition IC50 (nM) - range.
Description: (§1) Microplates were coated with recombinant human integrin αvβ6 (2 µg/mL) in PBS (100 µL/well 25° C., overnight). The coating solution was removed, washed with wash buffer (0.05% Tween 20; 0.5 mM MnCl2; in 1x TBS). The plate was blocked with 200 µL/well of Block Buffer (1% BSA; 5% sucrose; 0.5 mM MnCl2; in 1x TBS) at 37° C. for 2 h. Dilutions of testing compounds and recombinant TGFβ1 LAP (0.67 µg/mL) in binding buffer (0.05% BSA; 2.5% sucrose; 0.5 mM MnCl2; in 1x TBS) were added. The plate was incubated for 2 hours at 25° C., washed, and incubated for 1 hour with Biotin-Anti-hLAP. Bound antibody was detected by peroxidase-conjugated streptavidin. The IC50 values for testing compounds were calculated by a four-parameter logistic regression.
The compounds tested were compound samples prepared according to procedures described in the Synthetic Examples section, with the stereochemical purity as indicated in the Examples.
as §1, with “A third series of exemplary compounds was selected for testing in the solid phase integrin αvβ6 binding assay. The compounds tested were compound samples prepared according to procedures described in the Synthetic Examples section, with the stereochemical purity as indicated in the Examples. As in Example B1, microplates” for “Microplates”

Chain of recombinant human integrin αvβ6 (P06756 31-889): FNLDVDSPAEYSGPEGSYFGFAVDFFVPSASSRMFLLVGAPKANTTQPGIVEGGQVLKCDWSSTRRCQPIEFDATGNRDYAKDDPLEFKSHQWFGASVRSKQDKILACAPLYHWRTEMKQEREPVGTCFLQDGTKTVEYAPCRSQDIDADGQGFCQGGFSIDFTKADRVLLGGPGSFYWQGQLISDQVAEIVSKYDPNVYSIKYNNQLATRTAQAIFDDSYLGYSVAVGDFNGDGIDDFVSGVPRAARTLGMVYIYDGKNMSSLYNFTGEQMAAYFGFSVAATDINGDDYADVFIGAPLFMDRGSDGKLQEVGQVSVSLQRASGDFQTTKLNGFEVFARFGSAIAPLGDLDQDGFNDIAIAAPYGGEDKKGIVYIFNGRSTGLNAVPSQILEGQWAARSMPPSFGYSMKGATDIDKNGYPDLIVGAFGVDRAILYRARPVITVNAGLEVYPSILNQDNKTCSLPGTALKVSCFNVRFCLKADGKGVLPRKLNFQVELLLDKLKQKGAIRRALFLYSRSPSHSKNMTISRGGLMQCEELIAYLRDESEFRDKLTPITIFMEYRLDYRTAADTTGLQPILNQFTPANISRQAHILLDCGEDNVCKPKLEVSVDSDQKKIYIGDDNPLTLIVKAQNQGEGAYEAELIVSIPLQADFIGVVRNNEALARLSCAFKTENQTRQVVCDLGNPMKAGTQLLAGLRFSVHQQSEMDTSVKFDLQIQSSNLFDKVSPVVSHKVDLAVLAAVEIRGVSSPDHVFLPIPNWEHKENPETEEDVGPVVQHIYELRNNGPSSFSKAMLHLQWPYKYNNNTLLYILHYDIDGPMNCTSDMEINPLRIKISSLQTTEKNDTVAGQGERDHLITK
Chain of recombinant human integrin αvβ6 (P06756 890-992 partner): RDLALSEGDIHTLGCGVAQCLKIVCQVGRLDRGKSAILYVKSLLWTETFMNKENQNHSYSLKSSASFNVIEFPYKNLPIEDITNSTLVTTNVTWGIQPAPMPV
Chain of recombinant human integrin αvβ6 (P18564 22-707): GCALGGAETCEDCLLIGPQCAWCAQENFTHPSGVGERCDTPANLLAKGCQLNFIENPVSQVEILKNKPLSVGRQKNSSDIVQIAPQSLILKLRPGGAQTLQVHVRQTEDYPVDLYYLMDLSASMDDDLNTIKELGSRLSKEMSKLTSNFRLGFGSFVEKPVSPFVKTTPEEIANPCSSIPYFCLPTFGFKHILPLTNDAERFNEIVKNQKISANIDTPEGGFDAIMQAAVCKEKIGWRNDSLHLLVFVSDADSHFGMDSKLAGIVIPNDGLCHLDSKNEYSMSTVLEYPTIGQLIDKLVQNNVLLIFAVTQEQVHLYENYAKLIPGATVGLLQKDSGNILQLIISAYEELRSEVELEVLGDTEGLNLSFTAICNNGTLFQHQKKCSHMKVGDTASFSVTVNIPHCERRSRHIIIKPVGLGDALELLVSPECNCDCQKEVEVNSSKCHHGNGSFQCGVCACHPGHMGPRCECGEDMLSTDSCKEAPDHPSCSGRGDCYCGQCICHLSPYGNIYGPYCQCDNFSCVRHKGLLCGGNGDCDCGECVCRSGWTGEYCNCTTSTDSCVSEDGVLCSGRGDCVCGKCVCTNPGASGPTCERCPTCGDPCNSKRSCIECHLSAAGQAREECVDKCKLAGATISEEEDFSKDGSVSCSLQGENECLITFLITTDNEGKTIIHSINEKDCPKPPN

First: CO[C@H](C)CN(CCCCc1ccc2c(n1)NCCC2)CCC(Nc1ncnc2ccccc12)C(=O)O (stereo partly shown) [compound 62]
Second: O=C(O)[C@H](CCN(CCCCc1ccc2c(n1)NCCC2)CC(F)F)Nc1ncnc2ccccc12 [compound 8]
The IC50 of the first is lower: < 50 nM for the first, 50 to 250 nM for the second.

`O=C(O)[C@H](CCN(CCCCc1ccc2c(n1)NCCC2)CCOCC(F)(F)F)Nc1ncnc2cccnc12` [compound 51] and `O=C(O)[C@H](CCN(CCCCc1ccc2c(n1)NCCC2)CCOCC(F)F)Nc1ncnc2ccccc12` [compound 50] cannot be ordered by IC50: < 50 nM for the first, < 50 nM for the second.

`O=C(O)[C@H](CCN(CCCCc1ccc2c(n1)NCCC2)CCOc1cncc(F)c1)Nc1ncnc2ccccc12` [compound 58] and `O=C(O)[C@H](CCN(CCCCc1ccc2c(n1)NCCC2)CCOc1cc(F)cc(F)c1)Nc1ncnc2ccccc12` [compound 47] cannot be ordered by IC50: < 50 nM for the first, < 50 nM for the second.

`O=C(O)[C@H](CCN(CCCCc1ccc2c(n1)NCCC2)CC(F)F)Nc1cc(-c2ccccc2)ncn1` [compound 142] and `O=C(O)[C@H](CCN(CCCCc1ccc2c(n1)NCCC2)CC(F)F)Nc1cc(-n2cccn2)ncn1` [compound 98] cannot be ordered by IC50: > 1000 nM for the first, > 1000 nM for the second.

Compared with `O=C(O)[C@H](CCN(CCCCc1ccc2c(n1)NCCC2)C1CC1)Nc1ccnc(C(F)(F)F)n1` [compound 115], `O=C(O)[C@H](CCN(CCCCc1ccc2c(n1)NCCC2)CC(F)F)Nc1ccnc(C(F)(F)F)n1` [compound 97] is higher in IC50: 50 to 250 nM for the first, > 1000 nM for the second. The first is the more potent here.

First: COCCN(CCCCc1ccc2c(n1)NCCC2)CC[C@H](Nc1nccc2ccccc12)C(=O)O [compound 34]
Second: COCCN(CCCCc1ccc2c(n1)NCCC2)CC[C@H](Nc1ncnc2c(Cl)cccc12)C(=O)O [compound 38]
The IC50 of the first is higher: > 1000 nM for the first, < 50 nM for the second.

`CO[C@H](C)CN(CCCCc1ccc2c(n1)NCCC2)CC[C@H](Nc1nc(-c2cccnc2)nc2ccccc12)C(=O)O` [compound 100] and `COC[C@@H](F)CN(CCCCc1ccc2c(n1)NCCC2)CC[C@H](Nc1nc(-c2cccnc2)nc2ccccc12)C(=O)O` [compound 109] cannot be ordered by IC50: < 50 nM for the first, < 50 nM for the second.

Going from `CS(=O)(=O)CCN(CCCCc1ccc2c(n1)NCCC2)CC[C@H](Nc1cc(-n2cccn2)ncn1)C(=O)O` [compound 126] to `O=C(O)[C@H](CCN(CCCCc1ccc2c(n1)NCCC2)CCOc1ccccc1)Nc1cc(-n2cccn2)ncn1` [compound 91], the IC50 falls from > 1000 nM to < 50 nM.

`COCCN(CCCCc1ccc2c(n1)NCCC2)CC[C@H](Nc1cc(C(F)(F)F)nc(C)n1)C(=O)O` [compound 22] and `COCCN(CCCCc1ccc2c(n1)NCCC2)CC[C@H](Nc1nc(C(F)(F)F)nc2ccccc12)C(=O)O` [compound 14] cannot be ordered by IC50: < 50 nM for the first, < 50 nM for the second.

First: Cn1ncc2c(N[C@@H](CCN(CCCCc3ccc4c(n3)NCCC4)CCOc3ccc(F)cc3)C(=O)O)ncnc21 [compound 123]
Second: O=C(O)[C@H](CCN(CCCCc1ccc2c(n1)NCCC2)CCOc1ccc(F)cc1)Nc1ncc(Br)cn1 [compound 144]
The IC50 of the first is lower: < 50 nM for the first, 50 to 250 nM for the second. The first is the more potent here.

Compared with `CS(=O)(=O)CCN(CCCCc1ccc2c(n1)NCCC2)CC[C@H](Nc1ncc(Br)cn1)C(=O)O` [compound 103], `O=C(O)[C@H](CCN(CCCCc1ccc2c(n1)NCCC2)CCC(F)F)Nc1ncc(Br)cn1` [compound 131] is lower in IC50: > 1000 nM for the first, 50 to 250 nM for the second.

Compared with `Cn1ncc2c(N[C@@H](CCN(CCCCc3ccc4c(n3)NCCC4)CCC(F)F)C(=O)O)ncnc21` [compound 133], `Cn1ncc2c(N[C@@H](CCN(CCCCc3ccc4c(n3)NCCC4)CC(F)F)C(=O)O)ncnc21` [compound 88] is higher in IC50: 50 to 250 nM for the first, > 1000 nM for the second.

`O=C(O)[C@H](CCN(CCCCc1ccc2c(n1)NCCC2)CCOc1ccccc1)Nc1ncc(C2CC2)cn1` [compound 117] and `O=C(O)[C@H](CCN(CCCCc1ccc2c(n1)NCCC2)CCOc1ccccc1)Nc1ncc(Br)cn1` [compound 83] cannot be ordered by IC50: < 50 nM for the first, < 50 nM for the second.

Compared with `O=C(O)[C@H](CCN(CCCCc1ccc2c(n1)NCCC2)CCC(F)F)Nc1ccnc(C(F)(F)F)n1` [compound 134], `CO[C@H](C)CN(CCCCc1ccc2c(n1)NCCC2)CC[C@H](Nc1ccnc(C(F)(F)F)n1)C(=O)O` [compound 87] is higher in IC50: 50 to 250 nM for the first, 250 to 1000 nM for the second. The first is the more potent here.

`O=C(O)[C@H](CCN(CCCCc1ccc2c(n1)NCCC2)CC(F)F)Nc1ncc(F)cn1` [compound 121] and `O=C(O)[C@H](CCN(CCCCc1ccc2c(n1)NCCC2)CC(F)F)Nc1ncc(C(F)(F)F)cn1` [compound 95] cannot be ordered by IC50: > 1000 nM for the first, > 1000 nM for the second.

`O=C(O)[C@H](CCN(CCCCc1ccc2c(n1)NCCC2)CC1CCO1)Nc1ncnc2ccccc12` (stereo partly shown) [compound 129] and `O=C(O)[C@H](CCN(CCO)CCCCc1ccc2c(n1)NCCC2)Nc1ncnc2ccccc12` [compound 75] cannot be ordered by IC50: < 50 nM for the first, < 50 nM for the second.

`O=C(O)[C@H](CCN(CCCCc1ccc2c(n1)NCCC2)CC(F)F)Nc1nc(-c2cccnc2)nc2ccccc12` [compound 99] and `CS(=O)(=O)CCN(CCCCc1ccc2c(n1)NCCC2)CC[C@H](Nc1nc(-c2cccnc2)nc2ccccc12)C(=O)O` [compound 107] fall in the same range of IC50: 250 to 1000 nM for the first, 250 to 1000 nM for the second.

`CO[C@H](C)CN(CCCCc1ccc2c(n1)NCCC2)CC[C@H](Nc1nc(C)nc2ccccc12)C(=O)O` [compound 66] and `CO[C@H](C)CN(CCCCc1ccc2c(n1)NCCC2)CC[C@H](Nc1ncncc1-c1ccccc1)C(=O)O` [compound 81] cannot be ordered by IC50: < 50 nM for the first, < 50 nM for the second.

`N#Cc1cnc(N[C@@H](CCN(CCCCc2ccc3c(n2)NCCC3)CCOc2ccccc2)C(=O)O)nc1` [compound 111] and `O=C(O)[C@H](CCN(CCCCc1ccc2c(n1)NCCC2)CCOc1ccccc1)Nc1ncc(C(F)(F)F)cn1` [compound 89] cannot be ordered by IC50: < 50 nM for the first, < 50 nM for the second.

First: Cn1ncc2c(N[C@@H](CCN(CCCF)CCCCc3ccc4c(n3)NCCC4)C(=O)O)ncnc21 [compound 136]
Second: Cn1ncc2c(N[C@@H](CCN(CCCCc3ccc4c(n3)NCCC4)CCS(C)(=O)=O)C(=O)O)ncnc21 [compound 101]
The IC50 of the first is lower: < 50 nM for the first, 50 to 250 nM for the second.

`Cc1cc(C)n(CCN(CCCCc2ccc3c(n2)NCCC3)CC[C@H](Nc2ncnc3ccccc23)C(=O)O)n1` [compound 45] and `O=C(O)[C@H](CCN(CCCF)CCCCc1ccc2c(n1)NCCC2)Nc1ncnc2ccccc12` [compound 30] cannot be ordered by IC50: < 50 nM for the first, < 50 nM for the second.

`Cc1cc(N[C@@H](CCN(CCCCc2ccc3c(n2)NCCC3)CC(F)F)C(=O)O)nc(-c2ccncc2)n1` [compound 122] and `O=C(O)[C@H](CCN(CCCCc1ccc2c(n1)NCCC2)CC(F)F)Nc1ncnc2[nH]ncc12` [compound 112] fall in the same range of IC50: 250 to 1000 nM for the first, 250 to 1000 nM for the second.

`O=C(O)[C@H](CCN(CCCCc1ccc2c(n1)NCCC2)CCOc1ccccc1)Nc1ncnc2[nH]ncc12` [compound 90] and `O=C(O)[C@H](CCN(CCCCc1ccc2c(n1)NCCC2)CCOc1ccccn1)Nc1ncnc2ccccc12` [compound 49] cannot be ordered by IC50: < 50 nM for the first, < 50 nM for the second.

`CO[C@H](C)CN(CCCCc1ccc2c(n1)NCCC2)CC[C@H](Nc1ncnc2c1cnn2C)C(=O)O` [compound 74] and `COC[C@@H](F)CN(CCCCc1ccc2c(n1)NCCC2)CC[C@H](Nc1ncnc2c1cnn2C)C(=O)O` [compound 105] cannot be ordered by IC50: < 50 nM for the first, < 50 nM for the second.

`COc1cccc2c(N[C@@H](CCN(CCCF)CCCCc3ccc4c(n3)NCCC4)C(=O)O)ncnc12` [compound 43] and `COCCN(CCCCc1ccc2c(n1)NCCC2)CC[C@H](Nc1ncnc2ccc(F)cc12)C(=O)O` [compound 19] cannot be ordered by IC50: < 50 nM for the first, < 50 nM for the second.

First: O=C(O)[C@H](CCN(CCCCc1ccc2c(n1)NCCC2)C1CC1)Nc1ncnc2ccccc12 [compound 6]
Second: O=C(O)[C@H](CCN(CCCCc1ccc2c(n1)NCCC2)CC(CO)CO)Nc1ncnc2ccccc12 [compound 130]
The IC50 of the first is higher: 50 to 250 nM for the first, < 50 nM for the second. The second is the more potent here.

First: CO[C@H](C)CN(CCCCc1ccc2c(n1)NCCC2)CC[C@H](Nc1ncc(C2CC2)cn1)C(=O)O [compound 124]
Second: CO[C@H](C)CN(CCCCc1ccc2c(n1)NCCC2)CC[C@H](Nc1ncc(Br)cn1)C(=O)O [compound 86]
The IC50 of the first is lower: < 50 nM for the first, 50 to 250 nM for the second.

First: CO[C@H](C)CN(CCCCc1ccc2c(n1)NCCC2)CC[C@H](Nc1ncc(C#N)cn1)C(=O)O [compound 84]
Second: CO[C@H](C)CN(CCCCc1ccc2c(n1)NCCC2)CC[C@H](Nc1nccnc1C#N)C(=O)O [compound 76]
The IC50 of the first is higher: 250 to 1000 nM for the first, < 50 nM for the second.

`O=C(O)[C@H](CCN(CCCF)CCCCc1ccc2c(n1)NCCC2)Nc1ncc(C(F)(F)F)cn1` [compound 137] and `O=C(O)[C@H](CCN(CCCCc1ccc2c(n1)NCCC2)CCOC(F)F)Nc1ncnc2ccccc12` [compound 35] cannot be ordered by IC50: < 50 nM for the first, < 50 nM for the second.

`CN(C)C(=O)CN(CCCCc1ccc2c(n1)NCCC2)CC[C@H](Nc1ncnc2c1cnn2C)C(=O)O` [compound 140] and `CO[C@H](C)CN(CCCCc1ccc2c(n1)NCCC2)CC[C@H](Nc1ncnc2cn[nH]c12)C(=O)O` [compound 79] cannot be ordered by IC50: < 50 nM for the first, < 50 nM for the second.

With `O=C(O)[C@H](CCN(CCCCc1ccc2c(n1)NCCC2)CCOc1ccccc1)Nc1nc(-c2cccnc2)nc2ccccc12` [compound 94] the IC50 was < 50 nM.

Reference: patent US20230293519A1, “INTEGRIN INHIBITORS AND USES THEREOF IN COMBINATION WITH OTHER AGENTS” (Pliant Therapeutics, Inc., priority 2021, published 2023)
